# Calls of active or inactive are those of the source. The calls are words filed in the database; no cut-off is given here.
# Legend:
# NCI-H1417 [1] = experiment: Cell growth inhibition of human NCI-H1417 cells measured for 4 days; type: functional, cell-based; settings: time 4.0 day
# NCI-H1417 [2] = experiment: Cell growth inhibition of human NCI-H1417 cells measured upto 10 days; type: functional, cell-based; settings: time <= 10.0 day
# NCI-H1417 [3] = experiment: Effect on cell cycle in human NCI-H1417 cells assessed as cell accumulation at […] phase upto 1000 nM measured for 7 to 14 days by flow cytometry; type: functional, cell-based; settings: time 7-14 day
# [4] = Toxicity in mouse xenografted with human NCI-H526 cells assessed as drug tolerance at 1.5 mg/kg, po administered daily measured for 30 days; type: organism-based; settings: in vivo, 720 h, time 30 day
# [5] = Toxicity in mouse xenografted with human NCI-H1417 cells assessed as grooming behaviour at 1.5 mg/kg, po administered daily measured for 30 days; type: organism-based; settings: in vivo, 720 h, time 30 day
# [6] = Effect on cleaved PARP level in human NCI-H526 cells assessed as relative expression at 1000 nM measured after 7 days by Western blot analysis (reference value: 0.57); type: functional; settings: time 7 day
# [7] = Effect on cleaved PARP level in human NCI-H526 cells assessed as fold change at 10 nM measured after 7 days by Western blot analysis (reference value: 1.00); type: functional; settings: time 7 day
# [8] = Effect on cleaved PARP level in human NCI-H526 cells assessed as fold change at 10 nM measured after 10 days by Western blot analysis (reference value: 1.00); type: functional; settings: time 10 day
# [9] = Effect on cleaved PARP level in human NCI-H526 cells assessed as fold change at 100 nM measured after 10 days by Western blot analysis (reference value: 1.00); type: functional; settings: time 10 day
# [10] = Effect on cleaved PARP level in human NCI-H524 cells assessed as relative expression at 100 nM measured after 7 days by Western blot analysis (reference value: 0.63); type: functional; settings: time 7 day
# [11] = Effect on cleaved PARP level in human NCI-H524 cells assessed as relative expression at 100 nM measured after 14 days by Western blot analysis (reference value: […]); type: functional; settings: time 14 day
# [12] = Effect on cleaved PARP level in human NCI-H524 cells assessed as fold change at 1000 nM measured after 10 days by Western blot analysis (reference value: 1.00); type: functional; settings: time 10 day
# [13] = Effect on cleaved PARP level in human NCI-H524 cells assessed as fold change at 100 nM measured after 14 days by Western blot analysis (reference value: 1.00); type: functional; settings: time 14 day
# [14] = Effect on cleaved PARP level in human NCI-H69 cells assessed as relative expression at 10 nM measured after 7 days by Western blot analysis (reference value: 0.02); type: functional; settings: time 7 day
# [15] = Effect on cleaved PARP level in human NCI-H69 cells assessed as relative expression at 100 nM measured after 10 days by Western blot analysis (reference value: 0.03); type: functional; settings: time 10 day
# [16] = Effect on cleaved PARP level in human NCI-H69 cells assessed as fold change at 1000 nM measured after 7 days by Western blot analysis (reference value: 1.00); type: functional; settings: time 7 day
# [17] = Effect on cleaved PARP level in human NCI-H69 cells assessed as fold change at 10 nM measured after 14 days by Western blot analysis (reference value: 1.00); type: functional; settings: time 14 day
# [18] = Effect on cleaved PARP level in human NCI-H69 cells assessed as fold change at 100 nM measured after 14 days by Western blot analysis (reference value: 1.00); type: functional; settings: time 14 day
# [19] = Effect on cleaved PARP level in human NCI-H510 cells assessed as fold change at 10 nM measured after 14 days by Western blot analysis (reference value: 1.00); type: functional, NCI-H510A; settings: time 14 day
# [20] = Effect on cleaved PARP level in human NCI-H510 cells assessed as fold change at 100 nM measured after 14 days by Western blot analysis (reference value: 1.00); type: functional, NCI-H510A; settings: time 14 day
# [21] = Effect on cleaved PARP level in human NCI-H889 cells assessed as fold change at 10 nM measured after 10 days by Western blot analysis (reference value: 1.00); type: functional; settings: time 10 day
# [22] = Effect on cleaved PARP level in human NCI-H889 cells assessed as fold change at 1000 nM measured after 10 days by Western blot analysis (reference value: 1.00); type: functional; settings: time 10 day
# [23] = Effect on cleaved PARP level in human NCI-H2171 cells assessed as relative expression at 100 nM measured after 10 days by Western blot analysis (reference value: 0.02); type: functional; settings: time 10 day
# [24] = Effect on cleaved PARP level in human NCI-H146 cells assessed as relative expression at 10 nM measured after 7 days by Western blot analysis (reference value: […]); type: functional; settings: time 7 day
# [25] = Effect on cleaved PARP level in human NCI-H146 cells assessed as relative expression at 10 nM measured after 10 days by Western blot analysis (reference value: 0.27); type: functional; settings: time 10 day
# [26] = Toxicity in rat assessed as congestion in lymphoid organs measured for 28 days; settings: in vivo, 672 h, time 28 day
# [27] = Toxicity in dog assessed as suppression of platelet in bone marrow measured for 28 days; type: cell-based, Canis lupus familiaris; settings: 672 h, time 28 day
# [28] = Toxicity in dog assessed as thrombocytopenia measured for 28 days; parameters: species or system Canis lupus familiaris; settings: in vivo, 672 h, time 28 day
# NCI-H69 = experiment: Antitumor activity against human NCI-H69 cells xenografted in nude mouse assessed as mean tumor volume at 0.5 mg/kg, po administered daily measured twice weekly (reference value: 1063 +/- 161 mm3); type: functional
# NCI-H510A [29] = experiment: Antitumor activity against human NCI-H510A cells xenografted in nude mouse assessed as mean tumor volume at 1.5 mg/kg, po administered daily measured twice weekly (reference value: 1028 +/- 182 mm3); type: functional
# NCI-H510A [30] = experiment: Antitumor activity against human NCI-H510A cells xenografted in nude mouse assessed as tumor growth inhibition at 1.5 mg/kg, po administered daily measured twice weekly relative to control; type: functional; settings: read-out: TGI
# SHP77 = experiment: Effect on NCAM gene expression in human SHP77 cells at 1 uM measured after 4 days by qRT-PCR analysis; type: functional, cell-based; settings: time 4.0 day
# NCI-H446 = experiment: Effect on SYP gene expression in human NCI-H446 cells at 1 uM measured after 4 days by qRT-PCR analysis; type: functional, cell-based; settings: time 4.0 day
# NCI-H526 [31] = experiment: In vivo inhibition of LSD1 in human NCI-H526 cells xenografted in nude mouse assessed as change in UMODL1 gene expression administrated daily for 5 days by qRT-PCR analysis; type: functional, organism-based; settings: dose 0.02-135 mg/kg, time 5.0 day
# NCI-H526 [32] = experiment: In vivo inhibition of LSD1 in human NCI-H526 cells xenografted in nude mouse assessed as change in ODZ2 gene expression administrated daily for 5 days by qRT-PCR analysis; type: functional, organism-based; settings: dose 0.02-135 mg/kg, time 5.0 day
# NCI-H1417 [33] = experiment: In vivo inhibition of LSD1 in human NCI-H1417 cells xenografted in nude mouse assessed as change in SAMD5 gene expression measured after 24 hrs post single administration by qRT-PCR analysis; type: functional, organism-based; settings: dose 0.02-135 mg/kg
# [34] = target: Lysine-specific histone demethylase 1A (Homo sapiens, UniProt O60341); settings: NCI-H526, dose 1-10000 nM, time 1-7 day
# Description: Inhibition of LSD1 in human NCI-H526 cells assessed as change in IGFBP2 gene expression at 1 to 10000 nM by qRT-PCR analysis
structure (smiles),measurement,setting,value
O=C(O)c1ccc(CN2CCC(CN[C@@H]3C[C@H]3c3ccccc3)CC2)cc1 [GSK2879552],growth inhibition (GI),NCI-H1417 [1],inactive
same,growth inhibition (GI),NCI-H1417 [2],Dose-Dependent Effect
same,Activity,NCI-H1417 [3],inactive
same,Activity,[4],Non-Toxic
same,Activity,[5],Non-Toxic
same,Activity,[6],0.74
same,fold change (FC),[7],0.85
same,fold change (FC),[8],0.57
same,fold change (FC),[9],1.16
same,Activity,[10],0.6
same,Activity,[11],1.13
same,fold change (FC),[12],0.83
same,fold change (FC),[13],0.74
same,Activity,[14],0.02
same,Activity,[15],0.06
same,fold change (FC),[16],2.21
same,fold change (FC),[17],1.66
same,fold change (FC),[18],5.03
same,fold change (FC),[19],1.79
same,fold change (FC),[20],2.92
same,fold change (FC),[21],1.68
same,fold change (FC),[22],2.77
same,Activity,[23],0.02
same,Activity,[24],2.37
same,Activity,[25],0.33
same,Activity,[26],Toxic
same,Activity,[27],Toxic
same,Activity,[28],Toxic
same,Activity,NCI-H69,592 mm3
same,Activity,NCI-H510A [29],705 mm3
same,inhibition in vivo at 1.5 mg/kg,NCI-H510A [30],38%
same,Activity,SHP77,inactive
same,Activity,NCI-H446,inactive
same,inhibition,NCI-H526 [31],Dose-Dependent Effect
same,inhibition,NCI-H526 [32],Dose-Dependent Effect
same,inhibition,NCI-H1417 [33],Dose-Dependent Effect
same,inhibition,[34],Tde
